EC50 data for nine compounds are collected here from patent US12459922B2 (Gilead Sciences, Inc., priority 2022, dated 2025).

This assay has as its system endogenous cellular STAT1 (phosphorylated at Tyr701) in NCI-H1373 cells. As to the kind of experiment: Phospho-STAT1 (Tyr701) LANCE Ultra TR-FRET Detection Assay. It is filed as cell-based. To be noted: Homo sapiens, NCI-H1373, 48 h, phospho-STAT1 (Tyr701) induction, read-out: NH1373 pSTAT1 EC50. (In TR-FRET formats the signal depends on donor and acceptor labels being close together.)

The EC50 is the midpoint of the concentration-response curve.

With `O=c1[nH]ncc(N[C@H](CCCn2cnc3cc(-c4ccc(C(F)(F)F)cn4)c(F)cc3c2=O)COC(F)F)c1C(F)(F)F` [Example 403, (R)-3-(5-(difluoromethoxy)-4-((6-oxo-5-(trifluoromethyl)-1,6-dihydropyridazin-4-yl)amino)pentyl)-6-fluoro-7-(5-(trifluoromethyl)pyridin-2-yl)quinazolin-4(3H)-one], the EC50 was 3.65 nM.
In the case of `C[C@@H](CCCn1ccc2cc(-c3ncc(C(F)(F)F)c(N4CCC4)n3)c(F)cc2c1=O)Nc1cn[nH]c(=O)c1C(F)(F)F` [Example 187, (S)-6-(4-(azetidin-1-yl)-5-(trifluoromethyl)pyrimidin-2-yl)-7-fluoro-2-(4-((6-oxo-5-(trifluoromethyl)-1,6-dihydropyridazin-4-yl)amino)pentyl)isoquinolin-1(2H)-one], the EC50 stood at 20.7 nM.
`[2H]C([2H])([2H])OC[C@@H](CCCn1ccc2cc(-c3ncc(C(F)F)c(N)n3)c(F)cc2c1=O)Nc1cn[nH]c(=O)c1C(F)(F)F` [Example 429, 6-[4-amino-5-(difluoromethyl)pyrimidin-2-yl]-7-fluoro-2-[(4R)-4-[[6-oxo-5-(trifluoromethyl)-1H-pyridazin-4-yl]amino]-5-(trideuteriomethoxy)pentyl]isoquinolin-1-one]: the EC50 is 7.21 nM.
Consider `O=c1[nH]ncc(N[C@@H]2CC[C@H](Cn3ccc4cc(-c5ncc(C(F)(F)F)cn5)c(F)cc4c3=O)C2)c1C(F)(F)F` [Example 446, 7-fluoro-2-(((1S,3R)-3-((6-oxo-5-(trifluoromethyl)-1,6-dihydropyridazin-4-yl)amino)cyclopentyl)methyl)-6-(5-(trifluoromethyl)pyrimidin-2-yl)isoquinolin-1(2H)-one], for which the EC50 amounted to 270 nM.
For the compound `O=c1[nH]ncc(N[C@H](CCCn2ccc3cc(-c4ncc(C(F)(F)F)cn4)c(F)c(F)c3c2=O)c2nnc(C3CC3)o2)c1C(F)(F)F` [Example 475, 2-[(4R)-4-(5-cyclopropyl-1,3,4-oxadiazol-2-yl)-4-[[6-oxo-5-(trifluoromethyl)-1H-pyridazin-4-yl]amino]butyl]-7,8-difluoro-6-[5-(trifluoromethyl)pyrimidin-2-yl]isoquinolin-1-one], the EC50 was 10.6 nM.
In the case of `CC(C)(O)[C@@H](CCCn1ccc2cc(-c3ncc(C(F)(F)F)cn3)c(F)cc2c1=O)Nc1cn[nH]c(=O)c1C(F)(F)F` [Example 73, 7-fluoro-2-[(4R)-5-hydroxy-5-methyl-4-[[6-oxo-5-(trifluoromethyl)-1H-pyridazin-4-yl]amino]hexyl]-6-[5-(trifluoromethyl)pyrimidin-2-yl]isoquinolin-1-one], the EC50 was 734 nM.
With `CC[C@@H](CCCn1ccc2cc(-c3ncc(Cl)c(N)n3)c(F)c(F)c2c1=O)Nc1cn[nH]c(=O)c1C(F)(F)F` [Example 359, (S)-6-(4-amino-5-chloropyrimidin-2-yl)-7,8-difluoro-2-(4-((6-oxo-5-(trifluoromethyl)-1,6-dihydropyridazin-4-yl)amino)hexyl)isoquinolin-1(2H)-one], the EC50 is 1.15 nM.
Take `O=c1[nH]ncc(N[C@H](CCCn2cnc3cc(-c4ncc(Cl)cn4)c(F)cc3c2=O)C2CC2)c1C(F)(F)F` [Example 470, 7-(5-chloropyrimidin-2-yl)-3-[(4R)-4-cyclopropyl-4-[[6-oxo-5-(trifluoromethyl)-1H-pyridazin-4-yl]amino]butyl]-6-fluoro-quinazolin-4-one]: the EC50 came out at 39.3 nM.
Consider `C[C@@H](CCCn1ccc2cc(-c3ncc(C#N)c(N)n3)c(F)cc2c1=O)Nc1cn[nH]c(=O)c1C(F)(F)F` [Example 101, 4-amino-2-[7-fluoro-1-oxo-2-[(4S)-4-[[6-oxo-5-(trifluoromethyl)-1H-pyridazin-4-yl]amino]pentyl]-6-isoquinolyl]pyrimidine-5-carbonitrile], for which the EC50 was determined as 12.6 nM.
